Source: patent US20110144140A1, “PYRIDINYL-PYRIMIDINE DERIVATIVES USEFUL AS POTASSIUM CHANNEL MODULATING AGENTS” (priority 2006, published 2011)
Counter-ions that a name gives are not always drawn.

Columns and labels:
[1] = target: T1, hSK3 channels (Homo sapiens, UniProt Q9UGI6); test: whole-cell patch-clamp recording of ionic current through SK channels, subtype 3, in HEK293 cells; type: cell-based; conditions: HEK293 cells expressing hSK3, baseline current at −75 mV, free Ca2+ 0.3-0.4 μM
T1 construct: expressed in transfected cells; host or cells: HEK293
Experimental: The ionic current through small-conductance Ca^2+-activated K^+ channels (SK channels, subtype 3) is recorded using the whole-cell configuration of the patch-clamp technique.
HEK293 tissue culture cells expressing hSK3 channels were grown in DMEM (Dulbecco's Modified Eagle Medium) supplemented with 10% FCS (foetal calf serum) at 37° C. in 5% CO2. At 60-80% confluency, cells were harvested by trypsin treatment and seeded on cover slips.
Experiments are carried out on one of several patch-clamp set-ups. Cells plated on coverslips are placed in a 15 μl perfusion chamber (flowrate ˜1 ml/min) mounted on an IMT-2 microscope. The microscopes are placed on vibration-free tables in grounded Faraday cages. All experiments are performed at room temperature (20-22° C.). […] Data are stored directly on the hard-disk and analysed by IGOR software (Wavemetrics, Lake Oswega, Oreg., USA).
The whole-cell configuration of the patch-clamp technique is applied. […] Cell capacitance is electronically compensated and the resistance between the pipette and the cell interior (the series resistance, Rs) is measured and compensated for. […]
The intracellular (pipette) solution contained: 154 mM KCl, 10 mM HEPES, 10 mM EGTA. Concentrations of CaCl2 and MgCl2 needed to obtain the desired free concentrations of Ca^2+ (0.3-0.4 μM, Mg^2+ always 1 mM) were calculated by EqCal software (Cambridge, UK) and added. […]

T1 sequence (Q9UGI6 whole entry): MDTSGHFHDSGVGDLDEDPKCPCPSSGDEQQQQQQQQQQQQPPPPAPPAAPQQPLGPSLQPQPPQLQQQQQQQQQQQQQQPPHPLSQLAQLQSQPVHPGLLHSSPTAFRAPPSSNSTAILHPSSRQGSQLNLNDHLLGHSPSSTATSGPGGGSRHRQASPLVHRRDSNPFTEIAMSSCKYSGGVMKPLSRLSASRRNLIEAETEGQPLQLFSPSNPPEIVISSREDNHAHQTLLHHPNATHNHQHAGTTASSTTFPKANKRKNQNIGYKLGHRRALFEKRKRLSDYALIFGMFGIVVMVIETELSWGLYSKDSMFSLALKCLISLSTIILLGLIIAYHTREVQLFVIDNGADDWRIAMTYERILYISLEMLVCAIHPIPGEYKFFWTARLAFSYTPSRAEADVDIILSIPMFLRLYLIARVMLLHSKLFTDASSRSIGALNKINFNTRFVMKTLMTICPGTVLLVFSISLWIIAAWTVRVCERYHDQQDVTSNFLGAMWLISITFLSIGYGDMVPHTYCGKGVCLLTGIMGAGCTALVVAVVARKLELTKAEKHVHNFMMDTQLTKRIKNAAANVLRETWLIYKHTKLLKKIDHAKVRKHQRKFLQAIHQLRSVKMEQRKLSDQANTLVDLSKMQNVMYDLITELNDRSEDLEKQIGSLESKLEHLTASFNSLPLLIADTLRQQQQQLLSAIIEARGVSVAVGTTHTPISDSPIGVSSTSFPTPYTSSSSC

| SMILES | SC100 (Stimulating Concentration required for increasing the baseline current by 100%) [1] | melting point |
| --- | --- | --- |
| Cc1cc(Nc2ccc(Cl)cc2)nc(-c2cccc(Cl)n2)n1 [Compound 4A, (4-Chloro-phenyl)-[6-methyl-2-(6-chloro-pyridin-2-yl)-pyrimidin-4-yl]-amine] | 0.3 µM |  |
| Cc1cc(Nc2ccc(Cl)cc2)nc(-c2cccc(Cl)n2)n1 (as salt: hydrochloride) [Compound 4A, (4-Chloro-phenyl)-[6-methyl-2-(6-chloro-pyridin-2-yl)-pyrimidin-4-yl]-amine] |  | 239 °C |
| Cc1cccc(-c2nc(C)cc(NC3CCCCC3)n2)n1 |  | 59.6 to 65 °C |
